Data reported in patent US11202773B2, “Locally bioavailable drugs” (UNIVERSITY OF HOUSTON SYSTEM, priority 2015, dated 2021).

What was measured:
human Colon S9 = assay: Glucuronidation by human colon S9; assay type: in vitro ADME; conditions: substrate 10 μM
Method: FIG. 5D is a bar graph illustrating in vitro metabolism of phenolics. Glucuronidation rates of 6a1-6a4 by human liver and intestinal microsomes. Additional metabolic rates of various locally bioavailable COX-2 inhibitors are in Table 4. […]. The incubation systems were: for glucuronidation, 0.88 mM magnesium chloride (MgCl2), 4.4 mM saccharolactone, 0.022 mg/mL alamethicin, 3.5 mM uridine 5′-diphospho-glucuronic acid (UDPGA), 10 μM substrates and different concentrations of microsomes in 50 mM potassium phosphate buffer (pH 7.4); for sulfation, 10 mM dithiothreitol (DTT), 5 mM MgCl2, 100 μM 3′-phosphoadenosine-5′-phosphosulfate (PAPS),10 μM substrate and different concentrations of S9 fractions in 50 mM potassium phosphate buffer (pH 7.4).
In vitro tools were employed to help predict the in vivo metabolism rates of the COX-2 inhibitors that are phenolics. […] By employing microsomes and S9 fractions prepared from both rats and humans, it could be determined if the results obtained in the rat model could be reasonably extrapolated to humans. In these experiments, raloxifene and genistein, two phenolic compounds which undergo extensive first-pass metabolism, were selected as controls.

Caco-2 cell monolayer = assay: Metabolism and transport across Caco-2 cell monolayers; assay type: in vitro ADME, human; conditions: 0-8 hours
Method: The Caco-2 cell monolayer is a well-established FDA-recognized model to study the absorption, transport, and metabolism of drugs in the human gastrointestinal tract. This allows for prediction of the disposition of the new compounds in colonic epithelium that is also undergoing carcinogenesis, because Caco-2 is a human colorectal cancer cell line.
After 10 μM 6a1 was applied to the apical or basolateral side of the Caco-2 monolayer model, the concentrations of 6a1 and its main phase II metabolites, glucuronide and sulfate, were monitored at both sides (FIG. 6A-D). The concentration of aglycone was also monitored at both sides. […] The majority of sulfates were effluxed to the apical side, while less was transported to the basolateral side. The amount of glucuronide generated by Caco-2 cells was much less than that of sulfates. The glucuronide was also transported to both sides.

## Cc1ccc(-c2cc(COc3ccccc3O)nn2-c2ccc(S(N)(=O)=O)cc2)cc1 [Compound 6a1]
Human Colon S9
  Glucuronidation rates by human Colon S9 (Mean): 1080 pmol/mg/min
Caco-2 cell monolayer; 10 μM applied to apical or basolateral side
  Permeation of the Caco-2 cell membrane: permeated the Caco-2 cell membrane easily
Caco-2 cell monolayer; 10 μM
  Phase II conjugation inside Caco-2 cells: rapidly conjugated by UGTs and SULTs
